By EC50 is commonly meant the concentration that produces a half-maximal response.

The source of these data is patent publication US20050100507A1, “Chemotactic peptide antagonists for imaging sites of inflammation” (Bracco Imaging S.p.A., priority 1998, published 2005).

Square brackets hold non-standard residues; d marks the D form. Ends that are not written are not given here. Peptide text beside a SMILES is read from it. * marks the point of attachment. 3‑but‑1‑enoxycarbonyl = 3-but-1-enoxycarbonyl (N-terminal capping group); 2‑quinoxazoyl = 2-quinoxazoyl (N-terminal capping group); trans‑cinnamoyl = O=C(/C=C/c1ccccc1)*; iso‑Boc = not defined here; Nle = CCCC[C@H](N)C(=O)O; 2Furoyl = O=C(c1ccco1)*; Boc = CC(C)(C)OC(=O)*; For = O=C*

Test [1] deals with elicited rat PMNs. In kind it is cell-based. The settings on record: for % Control (1 uM) / % Control (10 uM): MPO release, PMNs without fMLF, ± S.E.M.; for % Control (1 uM): test peptide 1 uM; for % Control (10 uM): test peptide 10 uM; for EC50: 4 h. The procedure:
(§1) Animals were sacrificed via administration of CO2 4 hours following peritoneal injection of 10 mL of 0.5% (w/v) oyster glycogen warmed to room temperature. Leukocyte harvesting via peritoneal lavage was performed using 20 mL of Hanks' buffered salt solution (HBSS−) containing 10 mM ethylene-diaminetetra-acetic acid (EDTA) disodium salt followed by a second lavage with 10 mL of HBSS− containing 10 mM EDTA. Exactly the same technique was performed on all rats with washes of the peritoneum prior to aspiration of samples approximating 1 minute. The volume of fluid recovered from each rat was approximately 20-25 mL and bloody lavages visibly containing significant red blood cell (RBC) populations were discarded.
(§2) Neutrophils isolated by peritoneal lavage were washed twice with 1 mL of HBSS− (without calcium chloride, magnesium chloride and magnesium sulfate) and centrifuged for ten minutes at 2000 rpms following each wash. PMNs utilized in functional assays were centrifuged at 25° C. while those used in binding assays were centrifuged at 4° C. to prevent internalization. A cold H2O RBC lysis was then performed with the addition of 9 mL of sterile ice-cold H2O and 1 mL of phosphate buffered saline (PBS) solution containing 0.1 M phosphate buffer, 0.027 M KCl and 1.37 M NaCl following resuspension of the sample in 1 mL of HBSS. Centrifugation was subsequently performed for ten minutes at 1600 rpms. White blood cell (WBC) differential stain containing saline, 2% acidic acid and phenol violet dye was used to identify the neutrophil population and trypan blue exclusion was used to determine viability of cells. As previously reported, 98% of leukocytes were neutrophils and approximately 95% of the cells were viable (Chen et al., 1996).
(§3) 0.5×10^6 PMNs per sample were incubated in 96-well Millipore Multiscreen 0.65 um filter plates. In a final volume of 150 uL, 50 uL of the respective fMLP analogues (10 uM to 1 pM) and/or fMLP (10 uM to 1.0 uM) were incubated with isolated PMNs pre-treated with cytochalasin B (5 ug/mL) for 10 minutes. Following a 30 minute incubation period at room temperature, the supernatant was collected into a 96-well polypropylene plate with the Millipore vacuum apparatus. A stock solution of o-phenylenediamine (OPD) was made to contain 2.5 mg of OPD, 5 ul of H2O2 and 10 mL HBSS+ and supernatant samples were subsequently incubated with 50 uL of OPD solution. The reaction was stopped after 2 minutes by the addition of 2.5M H2SO4. Photometric analysis was performed with the Thermomax Microplate Reader with optical density (O.D.490) values being read at a wavelength of 490 nm. Absorbance was measured against a blank containing 150 μl of HBSS+ which was subtracted from wells containing cells and the various treatments. MPO release was expressed as a percentage of the total release of myeloperoxidase in control wells containing cells ±fMLF.
The curve-fitting program Prism was used to calculate KD, IC50 and EC50 values by fitting data to the one-site binding equations A, B and C respectively. • A. Equation: One site binding (hyperbola) Y=Bmax*X/(KD+X) • B. Equation: One site competition Y=Bottom+(Top−Bottom)/(1+10^(X−LogIC50)); with x=log (concentration) and y=binding • C. […] Additionally, Graph fit software was used to perform Scatchard analysis of saturation binding data and to confirm KD and Bmax values generated by Prism software.

For test [2], the system named is elicited rat PMNs. Description: Myeloperoxidase release in elicited rat PMNs co-stimulated with 0.1 uM fMLF. In kind it is cell-based. The settings on record: for antagonist function on MPO release in fMLF stimulated rat PMNs: 0.1 uM fMLF, inhibition at 10 uM, result in words; for % Control MPO release (1 uM capping group + 0.1 uM fMLF): 1 uM test peptide + 0.1 uM fMLF; for % Control MPO release (1 uM capping group + 0.1 uM fMLF) / % Control MPO Release (10 uM capping group + 0.1 uM fMLF): ± S.E.M.; for % Control MPO Release (10 uM capping group + 0.1 uM fMLF): 10 uM test peptide + 0.1 uM fMLF. The procedure:
as §1, §2
as §3, with “In a final volume of 150 uL, 50 uL of the respective fMLP analogues (10 uM to 1 pM) and/or fMLP (10 uM to 1.0 uM) were incubated with isolated PMNs pre-treated with cytochalasin B (5 ug/mL) for 10 minutes.” left out

For the compound “Capping Group 4: Phenylthioacetyl N-terminal capping group attached to peptide NleLFK (phenylthioacetyl-[Nle]LFK)”, in test [1], the “% Control (1 uM)” value was 138.7 ± 28.6 % control and the “% Control (10 uM)” value worked out at 119.7 ± 20.3 % control.
In test [1], `CSCC[C@H](NC=O)C(=O)N[C@@H](CC(C)C)C(=O)N[C@@H](Cc1ccccc1)C(=O)N[C@@H](CCCCN)C(=O)O` [fMLFK, N-formyl-methionyl-leucyl-phenylalanyl-lysine, reference compound] (For-MLFK-OH) came in with an EC50 of 140 nM.
Turning to `CSCC[C@H](NC=O)C(=O)N[C@@H](CC(C)C)C(=O)N[C@@H](Cc1ccccc1)C(=O)O` [fMLF, N-formyl-methionyl-leucyl-phenylalanine, reference compound], the midpoint of the response in test [1], the EC50, lay at 110 nM.
On to “Capping Group 2: 2-methoxyacetyl N-terminal capping group attached to peptide NleLFK ({2‑methoxyacetyl}-[Nle]LFK)”, for which, in test [1], the “% Control (1 uM)” value is reported as 95.0 ± 15.7 % control and the “% Control (10 uM)” value amounted to 97.1 ± 37.1 % control.
As to “N-t-BocMLFK: known antagonist used as standard in MPO release assay (Boc-MLFK) [reference compound]”, in test [1], the “% Control (1 uM)” value was 89.8 ± 32.5 % control and the “% Control (10 uM)” value worked out at 86.7 ± 31.1 % control.
Turning to “iso-BocMLFK: known antagonist, fMLP peptide analogue synthesized in-house ({iso‑Boc}-MLFK; reading uncertain) [reference compound]”, in test [2], the “antagonist function on MPO release in fMLF stimulated rat PMNs” value is reported as “significantly inhibiting fMLF-stimulated MPO release”, the “% Control MPO release (1 uM capping group + 0.1 uM fMLF)” value was determined as 215.4 ± 66.3 % control and the “% Control MPO Release (10 uM capping group + 0.1 uM fMLF)” value amounted to 179.9 ± 50.6 % control. In addition, in test [1], the “% Control (1 uM)” value is listed as 99.6 ± 16.5 % control and the “% Control (10 uM)” value was found to be 94.7 ± 20.2 % control.
Take “Capping Group 12: 2-acetamido-5-thiazolesulfonyl N-terminal capping group attached to peptide NleLFK ({2‑acetamido‑5‑thiazolesulfonyl}-[Nle]LFK)”: in test [1], the “% Control (1 uM)” value came out at 117.5 ± 7.8 % control and the “% Control (10 uM)” value is recorded as 175.5 ± 12.0 % control.
The like results for “Capping Group 15: trans-cinnamoyl N-terminal capping group attached to peptide NleLFK ({trans‑cinnamoyl}-[Nle]LFK)” were, in that order, 133.1 ± 10.3 % control and 195.8 ± 14.3 % control.
The like results for “Capping Group 3: Furoyl N-terminal capping group attached to peptide NleLFK (2Furoyl-[Nle]LFK)” were, in that order, 93.0 ± 9.0 % control and 102.5 ± 9.0 % control.
On to “Capping Group 14: 2-quinoxazoyl N-terminal capping group attached to peptide NleLFK ({2‑quinoxazoyl}-[Nle]LFK)”, for which, in test [2], the “antagonist function on MPO release in fMLF stimulated rat PMNs” value is “significant inhibition”, the “% Control MPO release (1 uM capping group + 0.1 uM fMLF)” value was found to be 323.2 ± 16.8 % control and the “% Control MPO Release (10 uM capping group + 0.1 uM fMLF)” value was found to be 239.8 ± 9.0 % control. Besides, in test [1], the “% Control (1 uM)” value came out at 117.2 ± 18.6 % control and the “% Control (10 uM)” value is given as 129.8 ± 6.0 % control.
Consider “Capping Group 7: 3-but-1-enoxycarbonyl N-terminal capping group attached to peptide NleLFK ({3‑but‑1‑enoxycarbonyl}-[Nle]LFK)”, for which, in test [1], the “% Control (1 uM)” value came out at 133.8 ± 13.3 % control and the “% Control (10 uM)” value is 229.3 ± 13.3 % control.
